Results: ChEMBL document CHEMBL1909046, “DrugMatrix in vitro pharmacology data”

Key:
[1] = target: Tyrosine-protein kinase Lck (Homo sapiens, UniProt P06239); test: DRUGMATRIX: Protein Tyrosine Kinase, LCK enzyme inhibition (substrate: Poly(Glu:Tyr)); assay type: cell-based, Insect cells; conditions: insect cells; Not Active = under 50% inhibition at 10 µM
[2] = target: Sodium-dependent noradrenaline transporter (Homo sapiens, UniProt P23975); test: DRUGMATRIX: Norepinephrine Transporter radioligand binding (ligand: [125I] RTI-55); assay type: cell membranes, MDCK, Membrane; conditions: mdck; Not Active = under 50% inhibition at 10 µM
[3] = target: T1, Receptor-type tyrosine-protein phosphatase C (Homo sapiens, UniProt P08575); design: species or system Escherichia coli;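 note: inhibition of CD45 enzyme activity measured using DiFMUP as substrate; in other assays of this panel Not Active means under 50% inhibition at 10 µM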
T1 sequence (P08575 whole entry): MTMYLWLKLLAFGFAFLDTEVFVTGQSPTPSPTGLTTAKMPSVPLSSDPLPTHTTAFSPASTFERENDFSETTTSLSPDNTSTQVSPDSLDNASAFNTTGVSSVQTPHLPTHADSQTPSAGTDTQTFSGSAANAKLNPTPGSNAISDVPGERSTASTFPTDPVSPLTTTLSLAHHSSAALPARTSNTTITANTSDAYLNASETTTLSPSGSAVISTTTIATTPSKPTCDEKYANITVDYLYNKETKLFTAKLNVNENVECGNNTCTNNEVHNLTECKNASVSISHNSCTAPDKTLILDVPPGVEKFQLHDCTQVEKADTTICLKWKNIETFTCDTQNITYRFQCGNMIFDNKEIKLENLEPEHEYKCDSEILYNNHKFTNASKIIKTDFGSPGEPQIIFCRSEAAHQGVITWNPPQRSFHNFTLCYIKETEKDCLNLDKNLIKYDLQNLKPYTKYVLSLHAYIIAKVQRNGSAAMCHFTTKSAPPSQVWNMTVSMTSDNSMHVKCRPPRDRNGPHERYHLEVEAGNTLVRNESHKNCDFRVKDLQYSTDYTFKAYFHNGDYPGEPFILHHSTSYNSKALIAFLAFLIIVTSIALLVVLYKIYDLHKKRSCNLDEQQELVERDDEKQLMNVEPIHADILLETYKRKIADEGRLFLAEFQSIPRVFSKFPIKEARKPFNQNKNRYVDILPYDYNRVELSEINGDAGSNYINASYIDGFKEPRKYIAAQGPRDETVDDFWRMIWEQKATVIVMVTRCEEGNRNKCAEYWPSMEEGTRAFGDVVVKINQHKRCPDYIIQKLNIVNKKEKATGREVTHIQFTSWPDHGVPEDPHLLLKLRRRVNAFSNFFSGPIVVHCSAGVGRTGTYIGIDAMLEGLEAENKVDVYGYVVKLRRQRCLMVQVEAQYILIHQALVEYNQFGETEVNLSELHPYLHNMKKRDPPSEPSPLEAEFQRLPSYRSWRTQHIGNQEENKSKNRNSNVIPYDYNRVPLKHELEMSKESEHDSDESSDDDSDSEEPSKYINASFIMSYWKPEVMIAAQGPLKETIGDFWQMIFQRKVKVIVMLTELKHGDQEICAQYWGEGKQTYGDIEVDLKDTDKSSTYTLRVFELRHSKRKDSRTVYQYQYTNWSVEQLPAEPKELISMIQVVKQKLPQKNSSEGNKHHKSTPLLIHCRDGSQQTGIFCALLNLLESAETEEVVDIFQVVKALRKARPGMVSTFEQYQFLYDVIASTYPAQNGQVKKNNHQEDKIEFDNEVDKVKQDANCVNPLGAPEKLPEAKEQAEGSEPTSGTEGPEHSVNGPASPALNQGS

Substance-P receptor = Substance-P receptor (Homo sapiens, UniProt P25103); assay type: cell membranes, CHO, Membrane; conditions: cho; note: in other assays of this panel Not Active means under 50% inhibition at 10 µM
[4] = target: T2, Cholecystokinin receptor type A (Homo sapiens, UniProt P32238); assay type: cell membranes, Membrane; conditions: 1321-n1; note: in other assays of this panel Not Active means under 50% inhibition at 10 µM
T2 sequence (P32238 whole entry): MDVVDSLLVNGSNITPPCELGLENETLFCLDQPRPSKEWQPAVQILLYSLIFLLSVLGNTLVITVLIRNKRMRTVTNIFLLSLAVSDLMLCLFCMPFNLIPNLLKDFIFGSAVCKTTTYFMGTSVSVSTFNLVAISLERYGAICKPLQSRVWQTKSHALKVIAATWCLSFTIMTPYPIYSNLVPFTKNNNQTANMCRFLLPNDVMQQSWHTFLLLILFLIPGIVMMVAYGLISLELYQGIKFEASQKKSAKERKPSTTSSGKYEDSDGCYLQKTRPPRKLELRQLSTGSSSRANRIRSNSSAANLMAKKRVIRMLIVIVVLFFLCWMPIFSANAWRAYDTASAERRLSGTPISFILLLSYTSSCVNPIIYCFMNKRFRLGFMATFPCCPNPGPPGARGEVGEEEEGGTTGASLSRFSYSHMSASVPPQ

[5] = DRUGMATRIX: Platelet-Derived Growth Factor (PDGF) radioligand binding (ligand: [125I] PDGF); assay type: cell-based; conditions: nih3t3; Not Active = under 50% inhibition at 10 µM
Glucocorticoid receptor = target: T3, Glucocorticoid receptor (Homo sapiens, UniProt P04150); conditions: hela s3; note: in other assays of this panel Not Active means under 50% inhibition at 10 µM
T3 sequence (P04150 whole entry): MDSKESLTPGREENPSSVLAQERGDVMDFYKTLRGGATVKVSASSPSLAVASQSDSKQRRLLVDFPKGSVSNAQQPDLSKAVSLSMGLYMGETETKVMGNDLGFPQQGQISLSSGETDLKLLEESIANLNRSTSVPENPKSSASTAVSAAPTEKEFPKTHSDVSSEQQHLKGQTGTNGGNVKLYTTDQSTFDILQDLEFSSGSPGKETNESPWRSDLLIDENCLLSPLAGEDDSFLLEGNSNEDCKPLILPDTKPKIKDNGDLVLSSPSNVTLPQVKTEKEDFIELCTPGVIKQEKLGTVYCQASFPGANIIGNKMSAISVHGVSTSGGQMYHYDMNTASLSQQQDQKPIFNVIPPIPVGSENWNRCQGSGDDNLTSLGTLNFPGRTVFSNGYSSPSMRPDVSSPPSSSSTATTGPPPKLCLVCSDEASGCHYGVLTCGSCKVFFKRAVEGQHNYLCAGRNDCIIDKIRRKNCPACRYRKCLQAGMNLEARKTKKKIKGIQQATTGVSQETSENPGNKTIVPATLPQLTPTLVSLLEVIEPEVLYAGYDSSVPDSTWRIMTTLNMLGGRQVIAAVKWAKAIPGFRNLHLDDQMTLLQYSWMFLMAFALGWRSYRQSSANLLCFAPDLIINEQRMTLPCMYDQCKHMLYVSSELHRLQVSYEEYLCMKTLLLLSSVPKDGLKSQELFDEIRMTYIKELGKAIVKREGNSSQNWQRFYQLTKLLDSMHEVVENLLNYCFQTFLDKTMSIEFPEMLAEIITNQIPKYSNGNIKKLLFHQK

Sodium-dependent noradrenaline transporter, sequence (P23975 whole entry): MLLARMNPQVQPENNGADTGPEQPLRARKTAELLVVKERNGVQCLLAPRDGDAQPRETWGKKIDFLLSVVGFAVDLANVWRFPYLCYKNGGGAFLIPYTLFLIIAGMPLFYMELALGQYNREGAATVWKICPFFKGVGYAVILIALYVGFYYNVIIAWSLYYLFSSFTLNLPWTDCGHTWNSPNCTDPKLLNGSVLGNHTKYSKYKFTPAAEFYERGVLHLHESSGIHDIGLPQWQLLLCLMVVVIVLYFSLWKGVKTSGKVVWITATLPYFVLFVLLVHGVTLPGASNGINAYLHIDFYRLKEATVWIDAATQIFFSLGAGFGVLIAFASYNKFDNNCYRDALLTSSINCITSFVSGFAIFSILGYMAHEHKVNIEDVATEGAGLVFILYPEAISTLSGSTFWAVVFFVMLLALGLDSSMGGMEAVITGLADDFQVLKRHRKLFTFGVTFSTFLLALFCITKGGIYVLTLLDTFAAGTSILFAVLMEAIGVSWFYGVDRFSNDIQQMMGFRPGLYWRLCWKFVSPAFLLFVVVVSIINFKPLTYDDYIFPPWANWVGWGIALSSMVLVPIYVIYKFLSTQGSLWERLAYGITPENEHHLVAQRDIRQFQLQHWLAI
Tyrosine-protein kinase Lck, sequence (P06239 whole entry): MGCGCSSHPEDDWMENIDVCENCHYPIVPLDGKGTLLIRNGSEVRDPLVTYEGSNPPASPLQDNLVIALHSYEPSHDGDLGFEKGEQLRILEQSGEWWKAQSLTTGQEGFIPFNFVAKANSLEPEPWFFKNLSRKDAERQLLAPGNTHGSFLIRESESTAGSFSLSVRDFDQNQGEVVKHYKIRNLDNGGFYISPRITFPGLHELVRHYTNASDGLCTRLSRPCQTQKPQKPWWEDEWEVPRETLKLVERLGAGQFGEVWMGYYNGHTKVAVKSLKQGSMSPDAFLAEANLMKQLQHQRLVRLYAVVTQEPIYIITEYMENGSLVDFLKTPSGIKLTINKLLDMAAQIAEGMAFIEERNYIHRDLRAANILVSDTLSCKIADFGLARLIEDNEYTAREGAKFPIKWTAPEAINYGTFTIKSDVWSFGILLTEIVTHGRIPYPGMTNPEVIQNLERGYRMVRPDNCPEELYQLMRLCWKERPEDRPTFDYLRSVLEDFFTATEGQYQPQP
Substance-P receptor, sequence (P25103 whole entry): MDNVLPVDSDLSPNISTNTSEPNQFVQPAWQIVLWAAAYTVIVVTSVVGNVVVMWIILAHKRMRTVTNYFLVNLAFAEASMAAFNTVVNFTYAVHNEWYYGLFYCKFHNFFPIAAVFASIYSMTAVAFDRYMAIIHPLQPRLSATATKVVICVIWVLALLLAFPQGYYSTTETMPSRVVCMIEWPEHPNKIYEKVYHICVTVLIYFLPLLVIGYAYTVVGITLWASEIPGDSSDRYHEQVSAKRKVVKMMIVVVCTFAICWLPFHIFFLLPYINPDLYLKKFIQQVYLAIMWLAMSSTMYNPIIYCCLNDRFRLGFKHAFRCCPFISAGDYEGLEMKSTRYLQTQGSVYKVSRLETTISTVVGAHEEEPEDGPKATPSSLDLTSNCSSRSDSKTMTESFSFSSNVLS

N=C(N)NC(=O)Cc1c(Cl)cccc1Cl [GUANFACINE]
Not Active: IC50 [1] | IC50 [2] | IC50 [3] | IC50 (Substance-P receptor) | IC50 [4] | IC50 [5] | Ki [5] | IC50 (Glucocorticoid receptor)

Nc1ccn([C@@H]2O[C@H](CO)[C@@H](O)[C@@H]2O)c(=O)n1 [CYTARABINE]
Not Active: IC50 [1] | IC50 [2] | IC50 [3] | IC50 (Substance-P receptor) | IC50 [4] | IC50 [5] | Ki [5] | IC50 (Glucocorticoid receptor)

O=C/C=C/c1ccccc1
Not Active: IC50 [1] | IC50 [2] | IC50 [3] | IC50 (Substance-P receptor) | IC50 [4] | IC50 [5] | Ki [5] | IC50 (Glucocorticoid receptor)

C=CCc1ccc(O)c(OC)c1 [EUGENOL]
Not Active: IC50 [1] | IC50 [2] | IC50 [3] | IC50 (Substance-P receptor) | IC50 [4] | IC50 [5] | Ki [5]

NNc1nncc2ccccc12 [HYDRALAZINE]
Not Active: IC50 [1] | IC50 [2] | IC50 [3] | IC50 (Substance-P receptor) | IC50 [4] | IC50 [5] | Ki [5] | IC50 (Glucocorticoid receptor)

COc1ccc2cc3[n+](cc2c1OC)CCc1cc2c(cc1-3)OCO2.[Cl-] [BERBERINE CHLORIDE]
Not Active: IC50 [1] | IC50 [2] | IC50 [3] | IC50 (Substance-P receptor) | IC50 [4] | IC50 [5] | Ki [5] | IC50 (Glucocorticoid receptor)

CCC1(C)CC(=O)NC1=O (stereo unspecified) [ETHOSUXIMIDE]
Not Active: IC50 [1] | IC50 [2] | IC50 [3] | IC50 (Substance-P receptor) | IC50 [4] | IC50 [5] | Ki [5] | IC50 (Glucocorticoid receptor)

CC(C)=CCC/C(C)=C/CO [GERANIOL]
Not Active: IC50 [1] | IC50 [2] | IC50 [3] | IC50 (Substance-P receptor) | IC50 [4] | IC50 [5] | Ki [5] | IC50 (Glucocorticoid receptor)

COc1ccc(C(=O)N2CCCC2=O)cc1
Not Active: IC50 [1] | IC50 [2] | IC50 [3] | IC50 (Substance-P receptor) | IC50 [4] | IC50 [5] | Ki [5] | IC50 (Glucocorticoid receptor)

CC(C)(C)NC(=O)[C@H]1CC[C@H]2[C@@H]3CC[C@H]4NC(=O)C=C[C@]4(C)[C@H]3CC[C@]12C [FINASTERIDE]
Not Active: IC50 [1] | IC50 [2] | IC50 [3] | IC50 (Substance-P receptor) | IC50 [4] | IC50 [5] | Ki [5] | IC50 (Glucocorticoid receptor)

CC[C@H](C)[C@H]1O[C@]2(C=C[C@@H]1C)C[C@@H]1C[C@@H](C/C=C(\C)[C@@H](O[C@H]3C[C@H](OC)[C@@H](O[C@H]4C[C@H](OC)[C@@H](O)[C@H](C)O4)[C@H](C)O3)[C@@H](C)/C=C/C=C3\CO[C@@H]4[C@H](O)C(C)=C[C@@H](C(=O)O1)[C@]34O)O2.CO[C@H]1C[C@H](O[C@H]2[C@H](C)O[C@@H](O[C@@H]3/C(C)=C/C[C@@H]4C[C@@H](C[C@]5(C=C[C@H](C)[C@@H](C(C)C)O5)O4)OC(=O)[C@@H]4C=C(C)[C@@H](O)[C@H]5OC/C(=C\C=C\[C@@H]3C)[C@]54O)C[C@@H]2OC)O[C@@H](C)[C@@H]1O [ABAMECTIN]
Not Active: IC50 [1] | IC50 [2] | IC50 [3] | IC50 (Substance-P receptor) | IC50 [4] | IC50 [5] | Ki [5] | IC50 (Glucocorticoid receptor)

Cn1c(=O)c2[nH]cnc2n(C)c1=O.Cn1c(=O)c2[nH]cnc2n(C)c1=O.NCCN [AMINOPHYLLINE]
Not Active: IC50 [1] | IC50 [2] | IC50 [3] | IC50 (Substance-P receptor) | IC50 [4] | IC50 [5] | Ki [5]

OC(CCCN1CCCCC1)(c1ccccc1)c1ccccc1 [DIPHENIDOL]
Not Active: IC50 [1] | IC50 [2] | IC50 [3] | IC50 (Substance-P receptor) | IC50 [4] | IC50 [5] | Ki [5]

O=C(O)CCNC(=O)c1ccccc1 [BETAMIPRON]
Not Active: IC50 [1] | IC50 [2] | IC50 [3] | IC50 (Substance-P receptor) | IC50 [4] | IC50 [5] | Ki [5] | IC50 (Glucocorticoid receptor)

CC[C@H]1CN2CCc3cc(OC)c(OC)cc3[C@@H]2C[C@@H]1C[C@H]1NCCc2cc(OC)c(OC)cc21 [EMETINE]
Not Active: IC50 [1] | IC50 [2] | IC50 [3] | IC50 (Substance-P receptor) | IC50 [4] | IC50 [5] | Ki [5] | IC50 (Glucocorticoid receptor)

COc1cc(N)c(Cl)cc1C(=O)NC1CCN(CCCOc2ccc(F)cc2)CC1OC (stereo unspecified) [CISAPRIDE]
Not Active: IC50 [1] | IC50 [2] | IC50 [3] | IC50 (Substance-P receptor) | IC50 [4] | IC50 [5] | Ki [5] | IC50 (Glucocorticoid receptor)

C[C@@H]1C[C@H]2[C@@H]3CCC4=CC(=O)C=C[C@]4(C)[C@@]3(F)[C@@H](O)C[C@]2(C)[C@@]1(O)C(=O)CO [DEXAMETHASONE]
Not Active: IC50 [1] | IC50 [2] | IC50 [3] | IC50 (Substance-P receptor) | IC50 [4] | IC50 [5] | Ki [5]

CC1(C)S[C@@H]2[C@H](NC(=O)[C@H](N)c3ccccc3)C(=O)N2[C@H]1C(=O)O [AMPICILLIN]
Not Active: IC50 [1] | IC50 [3] | IC50 (Substance-P receptor) | IC50 [4] | IC50 [5] | Ki [5] | IC50 (Glucocorticoid receptor)

C#CC1(O)CC[C@H]2[C@@H]3CCC4=CC(=O)CC[C@@H]4[C@H]3CC[C@@]21CC (stereo partly specified) [NORGESTREL]
Not Active: IC50 [1] | IC50 [2] | IC50 [3] | IC50 (Substance-P receptor) | IC50 [4] | IC50 [5] | Ki [5]
